Experimental data reported in US8324264B1, “Inhibitors of bacterial biofilms and related methods” (Sequoia Sciences, Inc., priority 2011, dated 2012).
Values after ≈ are worked out from the molar mass of the structure shown. Where a name gives a salt, the structure may show the parent alone. Read-outs that look alike come from different tables or passages of the source.

What was measured:
P. aeruginosa biofilms = experiment: Biofilm growth assay (spreading biofilm on semi-solid agar), P. aeruginosa; assay type: cell-based; conditions: Pseudomonas aeruginosa, read-out: P. aeruginosa: concentration that reduces the area of the spreading biofilm by greater than or equal to 85%
How it was run: (§1)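 Values are compound concentrations (μg/ml) that cut the spreading-biofilm zone area by ≥85% relative to negative controls after overnight 37 °C growth from 5 μL central inoculum. E. coli plates: LB, 0.6% agar, 0.5% glucose; P. aeruginosa plates: M8 agar plus 0.2% glucose, 100 μM CaCl2, 1 mM MgSO4, 0.5% Casamino acids.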

E. coli biofilms = experiment: Biofilm growth assay (spreading biofilm on semi-solid agar), E. coli; assay type: cell-based; conditions: Escherichia coli, read-out: E. coli: concentration that reduces the area of the spreading biofilm by greater than or equal to 85%
How it was run: as §1

[1] = biofilm growth assay, overnight 37° C., vs negative controls, Tables 1-5

Row | Structure (SMILES) | IC85 (P. aeruginosa biofilms; [1]) | melting point | IC85 (E. coli biofilms; [1]) | IC85 (P. aeruginosa biofilms) | IC85 (E. coli biofilms)
1 | CC1(C)CC[C@]2(C(=O)Nc3cc(S)n[nH]3)CC[C@]3(C)C(=CCC4[C@@]5(C)Cc6c(n[nH]c6N)C(C)(C)C5CC[C@]43C)C2C1 (stereo partly drawn) [Compound 79, (4aS,6aS,6bR,13aR)-12-Amino-N-(3-mercapto-1H-pyrazol-5-yl)-2,2,6a,6b,9,9,13a-heptamethyl-2,3,4,4a,5,6,6a,6b,7,8,8a,9,11,13,13a,13b,14,15b-octadecahydro-1H-chryseno[1,2-f]indazole-4-a-carboxamide] | 0.25 µg/mL (≈ 0.423 µM) | > 300 °C | 0.5 µg/mL (≈ 0.846 µM) | – | –
2 | C/C=C/C1=C2[C@@H]3CC(C)(C)CC[C@]3(C(=O)O)CC[C@@]2(C)[C@]2(C)CC[C@H]3C(C)(C)c4n[nH]c(N)c4C[C@]3(C)C2C1 (stereo partly drawn) [Example 5, (4aS,6aS,6bR,8aR,13aR,15bS)-12-Amino-2,2,6a,6b,9,9,13a-heptamethyl-15-((E)-prop-1-enyl)-2,3,4,4a,5,6,6a,6b,7,8,8a,9,11,13,13a,13b,14,15b-octadecahydro-1H-chryseno[1,2-f]indazole-4-a-carboxylic acid] | 0.5 µg/mL (≈ 0.937 µM) | > 300 °C | 1 µg/mL (≈ 1.87 µM) | – | –
3 | CC1(C)CC[C@]2(C(=O)O)CC[C@]3(C)C(=C(c4c[nH]c(CN5CCOCC5)c4)CC4[C@@]5(C)Cc6c(n[nH]c6N)C(C)(C)[C@@H]5CC[C@]43C)[C@@H]2C1 (stereo partly drawn) [Example 9, (4aS,6aS,6bR,8aR,13aR,15bS)-12-Amino-2,2,6a,6b,9,9,13a-heptamethyl-15-(5-(morpholinomethyl)-1H-pyrrol-3-yl)-2,3,4,4a,5,6,6a,6b,7,8,8a,9,11,13,13a,13b,14,15b-octadecahydro-1H-chryseno[1,2-f]indazole-4-a-carboxylic acid] | 0.5 µg/mL (≈ 0.76 µM) | 270 to 280 °C (dec.) | 1 µg/mL (≈ 1.52 µM) | – | –
4 | CC1(C)CC[C@]2(c3n[nH]c(O)c3N3CCNCC3)CC[C@]3(C)C(=CCC4[C@@]5(C)Cc6c(n[nH]c6N)C(C)(C)C5CC[C@]43C)C2C1 (stereo partly drawn) [Compound 90, 3-((4aS,6aS,6bR,13aR)-12-Amino-2,2,6a,6b,9,9,13a-heptamethyl-2,3,4,4a,5,6,6a,6b,7,8,8a,9,11,13,13a,13b,14,15b-octadecahydro-1H-chryseno[1,2-f]indazol-4-a-yl)-4-(piperazin-1-yl)-1H-pyrazol-5-ol] | 0.5 µg/mL (≈ 0.812 µM) | > 300 °C | 1 µg/mL (≈ 1.62 µM) | – | –
5 | CC1(C)CC[C@]2(C(=O)Nc3nnn[nH]3)CC[C@]3(C)C(=CCC4[C@@]5(C)Cc6c(n[nH]c6N)C(C)(C)C5CC[C@]43C)C2C1 (stereo partly drawn) [Compound 61, (4aS,6aS,6bR,13aR)-12-Amino-2,2,6a,6b,9,9,13a-heptamethyl-N-(1H-tetrazol-5-yl)-2,3,4,4a,5,6,6a,6b,7,8,8a,9,11,13,13a,13b,14,15b-octadecahydro-1H-chryseno[1,2-f]indazole-4-a-carboxamide] | – | > 300 °C | – | 0.5 µg/mL (≈ 0.892 µM) | 0.5 µg/mL (≈ 0.892 µM)
6 | CN(C)c1cc(C2=C3[C@@H]4CC(C)(C)CC[C@]4(C(=O)O)CC[C@@]3(C)[C@]3(C)CC[C@H]4C(C)(C)c5n[nH]c(N)c5C[C@]4(C)C3C2)ccn1 (stereo partly drawn) [Example 22, (4aS,6aS,6bR,8aR,13aR,15bS)-12-Amino-15-(2-(dimethylamino)pyridin-4-yl)-2,2,6a,6b,9,9,13a-heptamethyl-2,3,4,4a,5,6,6a,6b,7,8,8a,9,11,13,13a,13b,14,15b-octadecahydro-1H-chryseno[1,2-f]indazole-4-a-carboxylic acid] | 1 µg/mL (≈ 1.63 µM) | > 300 °C | > 2 µg/mL | – | –
7 | CC1(C)CC[C@]2(c3n[nH]c(O)c3CCN)CC[C@]3(C)C(=C(c4ccoc4CN4CCOCC4)CC4[C@@]5(C)Cc6c(n[nH]c6N)C(C)(C)[C@@H]5CC[C@]43C)[C@@H]2C1 (stereo partly drawn) [Compound 92, 3-((4aS,6aS,6bR,8aR,13aR,15bS)-12-Amino-2,2,6a,6b,9,9,13a-heptamethyl-15-(2-(morpholinomethyl)furan-3-yl)-2,3,4,4a,5,6,6a,6b,7,8,8a,9,11,13,13a,13b,14,15b-octadecahydro-1H-chryseno[1,2-f]indazol-4-a-yl)-4-(2-aminoethyl)-1H-pyrazol-5-ol] | 0.5 µg/mL (≈ 0.676 µM) | 238 to 240 °C | 2 µg/mL (≈ 2.7 µM) | – | –
8 | CC1(C)CC[C@]2(c3n[nH]c(O)c3CCNC(N)=O)CC[C@]3(C)C(=CCC4[C@@]5(C)Cc6c(n[nH]c6N)C(C)(C)C5CC[C@]43C)C2C1 (stereo partly drawn) [Compound 87, 1-(2-(3-((4aS,6aS,6bR,13aR)-12-Amino-2,2,6a,6b,9,9,13a-heptamethyl-2,3,4,4a,5,6,6a,6b,7,8,8a,9,11,13,13a,13b,14,15b-octadecahydro-1H-chryseno[1,2-f]indazol-4-a-yl)-5-hydroxy-1H-pyrazol-4-yl)ethyl)urea] | 0.5 µg/mL (≈ 0.809 µM) | > 300 °C | 1 µg/mL (≈ 1.62 µM) | – | –
9 | CC1(C)CC[C@]2(C(=O)O)CC[C@]3(C)C(=C(c4c[nH]c5ccccc45)CC4[C@@]5(C)Cc6c(n[nH]c6N)C(C)(C)[C@@H]5CC[C@]43C)[C@@H]2C1 (stereo partly drawn) [Example 8, (4aS,6aS,6bR,8aR,13aR,15bS)-12-Amino-15-(1H-indol-3-yl)-2,2,6a,6b,9,9,13a-heptamethyl-2,3,4,4a,5,6,6a,6b,7,8,8a,9,11,13,13a,13b,14,15b-octadecahydro-1H-chryseno[1,2-f]indazole-4-a-carboxylic acid] | 0.25 µg/mL (≈ 0.411 µM) | > 300 °C (dec.) | 1 µg/mL (≈ 1.64 µM) | – | –
10 | CC1(C)CC[C@]2(C(=O)O)CC[C@]3(C)C(=C(c4cccnc4)CC4[C@@]5(C)Cc6c(n[nH]c6N)C(C)(C)[C@@H]5CC[C@]43C)[C@@H]2C1 (stereo partly drawn) [Example 12, (4aS,6aS,6bR,8aR,13aR,15bS)-12-Amino-2,2,6a,6b,9,9,13a-heptamethyl-15-(pyridin-3-yl)-2,3,4,4a,5,6,6a,6b,7,8,8a,9,11,13,13a,13b,14,15b-octadecahydro-1H-chryseno[1,2-f]indazole-4-a-carboxylic acid] | 0.5 µg/mL (≈ 0.876 µM) | > 300 °C | 1 µg/mL (≈ 1.75 µM) | – | –
11 | CC1(C)CC[C@]2(C(=O)Nc3nnc(N)s3)CC[C@]3(C)C(=CCC4[C@@]5(C)Cc6c(n[nH]c6N)C(C)(C)C5CC[C@]43C)C2C1 (stereo partly drawn) (as salt: ammonium) [Compound 71, (4aS,6aS,6bR,13aR)-12-Amino-N-(5-amino-1,3,4-thiadiazol-2-yl)-2,2,6a,6b,9,9,13a-heptamethyl-2,3,4,4a,5,6,6a,6b,7,8,8a,9,11,13,13a,13b,14,15b-octadecahydro-1H-chryseno[1,2-f]indazole-4-a-carboxamide] | – | 280 to 300 °C (dec.) | – | – | –
12 | C[C@H]1[C@H](C)CC[C@]2(C(=O)O)CC[C@]3(C)C(=CCC4[C@@]5(C)Cc6c(n[nH]c6N)C(C)(C)[C@@H]5CC[C@]43C)[C@H]12 (stereo partly drawn) (as salt: ammonium) [Example 2, (4aS,6aS,6bR,13aR)-12-Amino-2,2,6a,6b,9,9,13a-heptamethyl-2,3,4,4a,5,6,6a,6b,7,8,8a,9,11,13,13a,13b,14,15b-octadecahydro-1H-chryseno[1,2-f]indazole-4-a-carboxylic acid] | – | 258 to 278 °C | – | – | –
13 | CC1(C)CC[C@]2(C(=O)O)CC[C@]3(C)C(=C(c4ccc5c(c4)CCN5)CC4[C@@]5(C)Cc6c(n[nH]c6N)C(C)(C)[C@@H]5CC[C@]43C)[C@@H]2C1 (stereo partly drawn) (as salt: ammonium) [Example 11, (4aS,6aS,6bR,13aR)-12-Amino-15-(indolin-5-yl)-2,2,6a,6b,9,9,13a-heptamethyl-2,3,4,4a,5,6,6a,6b,7,8,8a,9,11,13,13a,13b,14,15b-octadecahydro-1H-chryseno[1,2-f]indazole-4-a-carboxylic acid] | – | 170 to 190 °C (dec.) | – | – | –
